# Reference: PubChem BioAssay (NCI)
#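 These data come from cells grown in 96-well plates and exposed to compound for 48 hours at five concentrations. TGI: total growth inhibition.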
# System: NCI-H23 lung
# Experiment: DTP human tumour cell line panel, 48 h
row,SMILES,TGI [µM]
1,COc1ccc(N2C(=O)c3cc(C)cnc3S2(=O)=O)cc1,> 100
2,CC(C)=CC(=O)C[C@H]1C(=O)O[C@@H]2C[C@H]3C(C)=CC(=O)[C@@H](O)[C@]3(C)[C@H]3[C@@]4(O)OC[C@]32[C@@H]1[C@@H](C)[C@H]4O,0.042
3,CC1(C)CC(=O)C(/C=N/c2nc(-c3ccccc3)cs2)=C(O)C1,> 100
4,CCN(CC)CC(=O)O[C@]1(CC)C(=O)OCc2c1cc1n(c2=O)Cc2cc3ccccc3nc2-1,0.13
5,Cn1c(=O)c2[nH]c(CCCCC(=O)O)nc2n(C)c1=O,> 100
6,N#Cc1nc(C2=C(Cl)c3ccccc3OC2)[nH]c1C#N,69.1
7,COc1ccc(-c2cc(=O)c3ccccc3[nH]2)c(OC)c1,> 100
8,C/C=C(/C)C(=O)O[C@H]1C[C@@H]2[C@@H](O)c3occ(C)c3C[C@]2(C)[C@@H](C)C1,33.1
9,Cc1ccc(-c2c3nc(c(-c4ccc(C)cc4)c4ccc([nH]4)c(-c4ccc(OCC5COC(C)(C)O5)cc4)c4nc(c(-c5ccc(C)cc5)c5ccc2[nH]5)C=C4)C=C3)cc1 (stereo unspecified),> 31.6
10,CC(=NNC(=S)Nc1ccc(C)cc1)c1cccc(C(C)=NNC(=S)Nc2ccc(C)cc2)n1,> 100
11,N#Cc1c(-c2ccccc2)cc(Nc2cccc(C(F)(F)F)c2)n2c1nc1ccccc12,3.63
12,COc1ccc(O)c(/C(C)=N/NC(=S)N(C)C)c1,> 88.5
13,c1ccc(CSP234N5CCN2CCN3CCN4CC5)c(CSP234N5CCN2CCN3CCN4CC5)c1,> 100
14,c1csc(-c2cc(-c3cccs3)c(-c3ccsc3)s2)c1,> 100
15,Cc1ccc(S(=O)(=O)OC(c2ccc(Cl)cc2Cl)C2OC(=O)c3ccccc32)cc1 (stereo unspecified),> 100
16,CN1C2CCC1CC(CCNC(c1ccccc1)c1ccccc1)C2 (stereo unspecified),> 100
17,O=C1NCCCNCCCNCCCNC(=O)c2cccc1n2,> 100
18,O=C1O/C(=C(/Br)c2ccc(Cl)c(Cl)c2)c2ccccc21,> 10
19,CSC1=N/C(=C\c2ccccc2)C(=O)N1CN1CCCCC1,> 100
20,CCOC(=O)C(Cc1cn(S(=O)(=O)c2ccccc2)c2ccccc12)(NC(C)=O)C(=O)OCC,> 100

# System: OVCAR-3 ovarian
# Experiment: DTP human tumour cell line panel, 48 h
row,SMILES,TGI [µM]
1,Cc1ccc(N=Nc2c(C)c(C#N)c(=S)n(C3OC(CO)C(O)C(O)C3O)c2C)cc1 (stereo unspecified),74.4
2,C=C(CC[C@@H](C)[C@H]1CC[C@@]2(C)C3=C(CC[C@]12C)[C@@]1(C)CC[C@H](O)[C@@H](C)C1CC3)C(C)C (stereo partly specified),3.59
3,C=C1CCC23CC(CC[C@@H]2[C@@]12C[C@@H](c1ccoc1)OC2=O)OC3=O (stereo partly specified),> 100
4,CC(=O)OCCOCn1cnc2c(Cl)nc(Cl)nc21,27.2
5,CNC(=O)N1CN(c2ccccc2)C2(CCN(CCCC3(c4ccc(F)cc4)OCCO3)CC2)C1=O,> 100
6,O=C(Cc1ccccc1)N/N=C/c1ccccc1O,> 100
7,COc1ccc(N2C(=O)c3cc(C)cnc3S2(=O)=O)cc1,> 100
8,CC(C)=CC(=O)C[C@H]1C(=O)O[C@@H]2C[C@H]3C(C)=CC(=O)[C@@H](O)[C@]3(C)[C@H]3[C@@]4(O)OC[C@]32[C@@H]1[C@@H](C)[C@H]4O,0.166
9,CC1(C)CC(=O)C(/C=N/c2nc(-c3ccccc3)cs2)=C(O)C1,> 100
10,CCN(CC)CC(=O)O[C@]1(CC)C(=O)OCc2c1cc1n(c2=O)Cc2cc3ccccc3nc2-1,0.947
11,Cn1c(=O)c2[nH]c(CCCCC(=O)O)nc2n(C)c1=O,> 100
12,N#Cc1nc(C2=C(Cl)c3ccccc3OC2)[nH]c1C#N,70.9
13,COc1ccc(-c2cc(=O)c3ccccc3[nH]2)c(OC)c1,> 100
14,C/C=C(/C)C(=O)O[C@H]1C[C@@H]2[C@@H](O)c3occ(C)c3C[C@]2(C)[C@@H](C)C1,31.1
15,Cc1ccc(-c2c3nc(c(-c4ccc(C)cc4)c4ccc([nH]4)c(-c4ccc(OCC5COC(C)(C)O5)cc4)c4nc(c(-c5ccc(C)cc5)c5ccc2[nH]5)C=C4)C=C3)cc1 (stereo unspecified),> 31.6
16,CC(=NNC(=S)Nc1ccc(C)cc1)c1cccc(C(C)=NNC(=S)Nc2ccc(C)cc2)n1,14.3
17,N#Cc1c(-c2ccccc2)cc(Nc2cccc(C(F)(F)F)c2)n2c1nc1ccccc12,5.58
18,COc1ccc(O)c(/C(C)=N/NC(=S)N(C)C)c1,> 100
19,c1ccc(CSP234N5CCN2CCN3CCN4CC5)c(CSP234N5CCN2CCN3CCN4CC5)c1,> 100
20,Cc1ccc(S(=O)(=O)OC(c2ccc(Cl)cc2Cl)C2OC(=O)c3ccccc32)cc1 (stereo unspecified),> 100
21,CN1C2CCC1CC(CCNC(c1ccccc1)c1ccccc1)C2 (stereo unspecified),> 100
22,CCOP(=O)(O)C1C(CO)OC(n2ccc(=O)[nH]c2=O)C1O (stereo unspecified),> 100
23,O=C1NCCCNCCCNCCCNC(=O)c2cccc1n2,> 100
24,O=C1O/C(=C(/Br)c2ccc(Cl)c(Cl)c2)c2ccccc21,> 10
25,CSC1=N/C(=C\c2ccccc2)C(=O)N1CN1CCCCC1,> 100
26,CCOC(=O)C(Cc1cn(S(=O)(=O)c2ccccc2)c2ccccc12)(NC(C)=O)C(=O)OCC,> 100

# System: OVCAR-4 ovarian
# Experiment: DTP human tumour cell line panel, 48 h
row,SMILES,TGI [µM]
1,Cc1ccc(N=Nc2c(C)c(C#N)c(=S)n(C3OC(CO)C(O)C(O)C3O)c2C)cc1 (stereo unspecified),> 100
2,C=C(CC[C@@H](C)[C@H]1CC[C@@]2(C)C3=C(CC[C@]12C)[C@@]1(C)CC[C@H](O)[C@@H](C)C1CC3)C(C)C (stereo partly specified),3.3
3,C=C1CCC23CC(CC[C@@H]2[C@@]12C[C@@H](c1ccoc1)OC2=O)OC3=O (stereo partly specified),> 100
4,CC(=O)OCCOCn1cnc2c(Cl)nc(Cl)nc21,37.5
5,CNC(=O)N1CN(c2ccccc2)C2(CCN(CCCC3(c4ccc(F)cc4)OCCO3)CC2)C1=O,> 100
6,O=C(Cc1ccccc1)N/N=C/c1ccccc1O,> 100
7,COc1ccc(N2C(=O)c3cc(C)cnc3S2(=O)=O)cc1,> 100
8,CC(C)=CC(=O)C[C@H]1C(=O)O[C@@H]2C[C@H]3C(C)=CC(=O)[C@@H](O)[C@]3(C)[C@H]3[C@@]4(O)OC[C@]32[C@@H]1[C@@H](C)[C@H]4O,1.05
9,CC1(C)CC(=O)C(/C=N/c2nc(-c3ccccc3)cs2)=C(O)C1,> 100
10,CCN(CC)CC(=O)O[C@]1(CC)C(=O)OCc2c1cc1n(c2=O)Cc2cc3ccccc3nc2-1,0.62
